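96-well plates; 48 h exposure; 5 concentrations. Endpoints by linear interpolation between flanking doses. Not reached: highest tested concentration assigned. Here, GI50 denotes the concentration required for 50% inhibition of growth. TGI denotes the concentration required for complete inhibition of growth.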
Each compound was assayed on HT29 colon (assay: NCI anticancer screen, dose series, 48 h).

Structure (SMILES) | TGI [µM]
C=CCCC1(CC(Sc2ccccc2)P(=O)(c2ccccc2)c2ccccc2)OCCO1 (stereo unspecified) | > 10
Cc1ccc2c3c1O[C@H]1c4[nH]c5ccccc5c4C[C@@]4(O)[C@@H](C2)N(CC2CC2)CC[C@]314 | 18.7
Nc1ccc(Cc2c(N)[nH]c(=O)[nH]c2=O)cc1 | > 100
O=C1c2ccccc2C(=O)N1CCCCNOCCCN1C(=O)c2ccccc2C1=O | > 100

The compounds below were run on NCI-H23 lung (assay: NCI anticancer screen, dose series, 48 h).

Structure (SMILES) | TGI [µM]
CCOC(=O)Cn1c(=O)ccn(COCCO)c1=O | > 100
CN(C)CCCN=c1c2ccccc2n(O)c2ccccc12 | > 100
C=CCCC1(CC(Sc2ccccc2)P(=O)(c2ccccc2)c2ccccc2)OCCO1 (stereo unspecified) | > 10
CCOC(=O)c1cc2c3ccn(Cc4ccccc4)c3c3c(C)[nH]oc3c2n1 | > 100
Cc1ccc2c3c1O[C@H]1c4[nH]c5ccccc5c4C[C@@]4(O)[C@@H](C2)N(CC2CC2)CC[C@]314 | 39.5
Nc1ccc(Cc2c(N)[nH]c(=O)[nH]c2=O)cc1 | > 100
O=C1c2ccccc2C(=O)N1CCCCNOCCCN1C(=O)c2ccccc2C1=O | > 100

The compounds below were run on CAKI-1 renal (assay: NCI anticancer screen, dose series, 48 h).

Structure (SMILES) | TGI [µM]
CCOC(=O)Cn1c(=O)ccn(COCCO)c1=O | > 100
CN(C)CCCN=c1c2ccccc2n(O)c2ccccc12 | > 100
C=CCCC1(CC(Sc2ccccc2)P(=O)(c2ccccc2)c2ccccc2)OCCO1 (stereo unspecified) | > 10
CCOC(=O)c1cc2c3ccn(Cc4ccccc4)c3c3c(C)[nH]oc3c2n1 | > 100
Cc1ccc2c3c1O[C@H]1c4[nH]c5ccccc5c4C[C@@]4(O)[C@@H](C2)N(CC2CC2)CC[C@]314 | 30.4
Nc1ccc(Cc2c(N)[nH]c(=O)[nH]c2=O)cc1 | > 100
O=C1c2ccccc2C(=O)N1CCCCNOCCCN1C(=O)c2ccccc2C1=O | > 100

Each compound was assayed on M14 melanoma (assay: NCI anticancer screen, dose series, 48 h).

Structure (SMILES) | TGI [µM]
CCOC(=O)Cn1c(=O)ccn(COCCO)c1=O | > 100
CN(C)CCCN=c1c2ccccc2n(O)c2ccccc12 | > 100
C=CCCC1(CC(Sc2ccccc2)P(=O)(c2ccccc2)c2ccccc2)OCCO1 (stereo unspecified) | > 10
CCOC(=O)c1cc2c3ccn(Cc4ccccc4)c3c3c(C)[nH]oc3c2n1 | > 100
Cc1ccc2c3c1O[C@H]1c4[nH]c5ccccc5c4C[C@@]4(O)[C@@H](C2)N(CC2CC2)CC[C@]314 | 32.4
Nc1ccc(Cc2c(N)[nH]c(=O)[nH]c2=O)cc1 | > 100
O=C1c2ccccc2C(=O)N1CCCCNOCCCN1C(=O)c2ccccc2C1=O | > 100

These compounds were tested on NCI-H226 lung (assay: NCI anticancer screen, dose series, 48 h).

Structure (SMILES) | TGI [µM]
CN(C)CCCN=c1c2ccccc2n(O)c2ccccc12 | 72.7
C=CCCC1(CC(Sc2ccccc2)P(=O)(c2ccccc2)c2ccccc2)OCCO1 (stereo unspecified) | > 10
CCOC(=O)c1cc2c3ccn(Cc4ccccc4)c3c3c(C)[nH]oc3c2n1 | > 100
Cc1ccc2c3c1O[C@H]1c4[nH]c5ccccc5c4C[C@@]4(O)[C@@H](C2)N(CC2CC2)CC[C@]314 | 30.5
Nc1ccc(Cc2c(N)[nH]c(=O)[nH]c2=O)cc1 | > 100
O=C1c2ccccc2C(=O)N1CCCCNOCCCN1C(=O)c2ccccc2C1=O | > 100

Each compound was assayed on LOX IMVI melanoma (assay: NCI anticancer screen, dose series, 48 h).

Structure (SMILES) | TGI [µM]
CCOC(=O)Cn1c(=O)ccn(COCCO)c1=O | > 100
CN(C)CCCN=c1c2ccccc2n(O)c2ccccc12 | > 100
C=CCCC1(CC(Sc2ccccc2)P(=O)(c2ccccc2)c2ccccc2)OCCO1 (stereo unspecified) | > 10
CCOC(=O)c1cc2c3ccn(Cc4ccccc4)c3c3c(C)[nH]oc3c2n1 | > 100
Cc1ccc2c3c1O[C@H]1c4[nH]c5ccccc5c4C[C@@]4(O)[C@@H](C2)N(CC2CC2)CC[C@]314 | 33.1
Nc1ccc(Cc2c(N)[nH]c(=O)[nH]c2=O)cc1 | > 100
O=C1c2ccccc2C(=O)N1CCCCNOCCCN1C(=O)c2ccccc2C1=O | > 100

Each compound was assayed on SN12C renal (assay: NCI anticancer screen, dose series, 48 h).

Structure (SMILES) | TGI [µM]
CCOC(=O)Cn1c(=O)ccn(COCCO)c1=O | > 100
CN(C)CCCN=c1c2ccccc2n(O)c2ccccc12 | > 100
C=CCCC1(CC(Sc2ccccc2)P(=O)(c2ccccc2)c2ccccc2)OCCO1 (stereo unspecified) | > 10
CCOC(=O)c1cc2c3ccn(Cc4ccccc4)c3c3c(C)[nH]oc3c2n1 | > 100
Cc1ccc2c3c1O[C@H]1c4[nH]c5ccccc5c4C[C@@]4(O)[C@@H](C2)N(CC2CC2)CC[C@]314 | 29.1
Nc1ccc(Cc2c(N)[nH]c(=O)[nH]c2=O)cc1 | > 100
O=C1c2ccccc2C(=O)N1CCCCNOCCCN1C(=O)c2ccccc2C1=O | > 100

What follows are compounds tested on HS 578T breast (assay: NCI anticancer screen, dose series, 48 h).

Structure (SMILES) | TGI [µM] | GI50 [µM]
CCOC(=O)Cn1c(=O)ccn(COCCO)c1=O | > 100 | –
CN(C)CCCN=c1c2ccccc2n(O)c2ccccc12 | > 100 | –
N#Cc1ccccc1CSc1ncnc2nc[nH]c12 | – | 51.9
C=CCCC1(CC(Sc2ccccc2)P(=O)(c2ccccc2)c2ccccc2)OCCO1 (stereo unspecified) | > 10 | –
CCOC(=O)c1cc2c3ccn(Cc4ccccc4)c3c3c(C)[nH]oc3c2n1 | > 100 | –
Nc1ccc(Cc2c(N)[nH]c(=O)[nH]c2=O)cc1 | > 100 | –
O=C1c2ccccc2C(=O)N1CCCCNOCCCN1C(=O)c2ccccc2C1=O | > 100 | –

These compounds were tested on NCI-H460 lung (assay: NCI anticancer screen, dose series, 48 h).

Structure (SMILES) | TGI [µM] | GI50 [µM]
CCOC(=O)Cn1c(=O)ccn(COCCO)c1=O | > 100 | –
CN(C)CCCN=c1c2ccccc2n(O)c2ccccc12 | > 100 | –
N#Cc1ccccc1CSc1ncnc2nc[nH]c12 | – | 83.3
C=CCCC1(CC(Sc2ccccc2)P(=O)(c2ccccc2)c2ccccc2)OCCO1 (stereo unspecified) | > 10 | –
CCOC(=O)c1cc2c3ccn(Cc4ccccc4)c3c3c(C)[nH]oc3c2n1 | > 100 | –
Cc1ccc2c3c1O[C@H]1c4[nH]c5ccccc5c4C[C@@]4(O)[C@@H](C2)N(CC2CC2)CC[C@]314 | 30.5 | –
Nc1ccc(Cc2c(N)[nH]c(=O)[nH]c2=O)cc1 | > 100 | –
O=C1c2ccccc2C(=O)N1CCCCNOCCCN1C(=O)c2ccccc2C1=O | > 100 | –

The compounds below were run on OVCAR-8 ovarian (assay: NCI anticancer screen, dose series, 48 h).

Structure (SMILES) | TGI [µM]
CCOC(=O)Cn1c(=O)ccn(COCCO)c1=O | > 100
CN(C)CCCN=c1c2ccccc2n(O)c2ccccc12 | > 100
C=CCCC1(CC(Sc2ccccc2)P(=O)(c2ccccc2)c2ccccc2)OCCO1 (stereo unspecified) | > 10
CCOC(=O)c1cc2c3ccn(Cc4ccccc4)c3c3c(C)[nH]oc3c2n1 | > 100
Cc1ccc2c3c1O[C@H]1c4[nH]c5ccccc5c4C[C@@]4(O)[C@@H](C2)N(CC2CC2)CC[C@]314 | 34.3
Nc1ccc(Cc2c(N)[nH]c(=O)[nH]c2=O)cc1 | > 100
O=C1c2ccccc2C(=O)N1CCCCNOCCCN1C(=O)c2ccccc2C1=O | > 100

These compounds were tested on A498 renal (assay: NCI anticancer screen, dose series, 48 h).

Structure (SMILES) | TGI [µM]
CCOC(=O)Cn1c(=O)ccn(COCCO)c1=O | > 100
CN(C)CCCN=c1c2ccccc2n(O)c2ccccc12 | > 100
C=CCCC1(CC(Sc2ccccc2)P(=O)(c2ccccc2)c2ccccc2)OCCO1 (stereo unspecified) | > 10
CCOC(=O)c1cc2c3ccn(Cc4ccccc4)c3c3c(C)[nH]oc3c2n1 | > 100
Cc1ccc2c3c1O[C@H]1c4[nH]c5ccccc5c4C[C@@]4(O)[C@@H](C2)N(CC2CC2)CC[C@]314 | 31.8
Nc1ccc(Cc2c(N)[nH]c(=O)[nH]c2=O)cc1 | > 100
O=C1c2ccccc2C(=O)N1CCCCNOCCCN1C(=O)c2ccccc2C1=O | > 100

The compounds below were run on HCT-116 colon (assay: NCI anticancer screen, dose series, 48 h).

Structure (SMILES) | TGI [µM]
CN(C)CCCN=c1c2ccccc2n(O)c2ccccc12 | > 100
C=CCCC1(CC(Sc2ccccc2)P(=O)(c2ccccc2)c2ccccc2)OCCO1 (stereo unspecified) | > 10
CCOC(=O)c1cc2c3ccn(Cc4ccccc4)c3c3c(C)[nH]oc3c2n1 | > 100
Cc1ccc2c3c1O[C@H]1c4[nH]c5ccccc5c4C[C@@]4(O)[C@@H](C2)N(CC2CC2)CC[C@]314 | 27.9
Nc1ccc(Cc2c(N)[nH]c(=O)[nH]c2=O)cc1 | > 100
O=C1c2ccccc2C(=O)N1CCCCNOCCCN1C(=O)c2ccccc2C1=O | > 100

Each compound was assayed on OVCAR-5 ovarian (assay: NCI anticancer screen, dose series, 48 h).

Structure (SMILES) | TGI [µM]
CCOC(=O)Cn1c(=O)ccn(COCCO)c1=O | > 100
CN(C)CCCN=c1c2ccccc2n(O)c2ccccc12 | > 100
C=CCCC1(CC(Sc2ccccc2)P(=O)(c2ccccc2)c2ccccc2)OCCO1 (stereo unspecified) | > 10
CCOC(=O)c1cc2c3ccn(Cc4ccccc4)c3c3c(C)[nH]oc3c2n1 | > 100
Cc1ccc2c3c1O[C@H]1c4[nH]c5ccccc5c4C[C@@]4(O)[C@@H](C2)N(CC2CC2)CC[C@]314 | 35.1
Nc1ccc(Cc2c(N)[nH]c(=O)[nH]c2=O)cc1 | > 100
O=C1c2ccccc2C(=O)N1CCCCNOCCCN1C(=O)c2ccccc2C1=O | > 100

Each compound was assayed on A549 NSCLC (assay: NCI anticancer screen, dose series, 48 h).

Structure (SMILES) | TGI [µM]
CCOC(=O)Cn1c(=O)ccn(COCCO)c1=O | > 100
CN(C)CCCN=c1c2ccccc2n(O)c2ccccc12 | > 100
C=CCCC1(CC(Sc2ccccc2)P(=O)(c2ccccc2)c2ccccc2)OCCO1 (stereo unspecified) | > 10
CCOC(=O)c1cc2c3ccn(Cc4ccccc4)c3c3c(C)[nH]oc3c2n1 | > 100
Cc1ccc2c3c1O[C@H]1c4[nH]c5ccccc5c4C[C@@]4(O)[C@@H](C2)N(CC2CC2)CC[C@]314 | 29.7
Nc1ccc(Cc2c(N)[nH]c(=O)[nH]c2=O)cc1 | > 100
O=C1c2ccccc2C(=O)N1CCCCNOCCCN1C(=O)c2ccccc2C1=O | > 100

Each compound was assayed on UACC-62 melanoma (assay: NCI anticancer screen, dose series, 48 h).

Structure (SMILES) | TGI [µM] | GI50 [µM]
CN(C)CCCN=c1c2ccccc2n(O)c2ccccc12 | > 100 | –
N#Cc1ccccc1CSc1ncnc2nc[nH]c12 | – | 77.2
C=CCCC1(CC(Sc2ccccc2)P(=O)(c2ccccc2)c2ccccc2)OCCO1 (stereo unspecified) | > 10 | –
CCOC(=O)c1cc2c3ccn(Cc4ccccc4)c3c3c(C)[nH]oc3c2n1 | > 100 | –
Cc1ccc2c3c1O[C@H]1c4[nH]c5ccccc5c4C[C@@]4(O)[C@@H](C2)N(CC2CC2)CC[C@]314 | 30.1 | –
Nc1ccc(Cc2c(N)[nH]c(=O)[nH]c2=O)cc1 | > 100 | –
O=C1c2ccccc2C(=O)N1CCCCNOCCCN1C(=O)c2ccccc2C1=O | > 100 | –

— PubChem BioAssay (NCI)
